{"source": "the supplement of paper PMC10307832", "assay_in_all_cases": "relative viability (nuclei count vs DMSO), 5 days (fraction); higher = more cells survive", "key": {"[1]": {"compound": "CC1CC(=O)N(C2=CN=C(N=C2N1C3CCCC3)NC4=C(C=C(C=C4)C(=O)NC5CCN(CC5)C)OC)C [NPK76-II-72-1] + Cc1nc(NC(=O)N2CCC[C@H]2C(N)=O)sc1-c1ccnc(C(C)(C)C(F)(F)F)c1 [Alpelisib] (partner 2 µM)", "method_in_brief": "(§1)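 Each reported value is a median over duplicate plates. It expresses relative viability: treated-well nuclei count divided by vehicle-well nuclei count. Lung cancer cell lines in 1536-well plates were dosed by pin tool a day after seeding, alone with one drug or with a fixed anchor-drug dose plus five library-drug doses (not always all listed) in √10 steps, and nuclei were counted after 5 days.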"}, "BI-2536 + Palbociclib": {"compound": "CC[C@@H]1C(=O)N(C)c2cnc(Nc3ccc(C(=O)NC4CCN(C)CC4)cc3OC)nc2N1C1CCCC1 [BI-2536] + CC(=O)c1c(C)c2cnc(Nc3ccc(N4CCNCC4)cn3)nc2n(C2CCCC2)c1=O [Palbociclib] (partner 0.5 µM)", "method_in_brief": "as §1"}, "BI-2536 + Navitoclax": {"compound": "CC[C@@H]1C(=O)N(C)c2cnc(Nc3ccc(C(=O)NC4CCN(C)CC4)cc3OC)nc2N1C1CCCC1 [BI-2536] + CC1(C)CCC(c2ccc(Cl)cc2)=C(CN2CCN(c3ccc(C(=O)NS(=O)(=O)c4ccc(N[C@H](CCN5CCOCC5)CSc5ccccc5)c(S(=O)(=O)C(F)(F)F)c4)cc3)CC2)C1 [Navitoclax] (partner 0.5 µM)", "method_in_brief": "as §1"}, "BI-2536 + Linsitinib": {"compound": "CC[C@@H]1C(=O)N(C)c2cnc(Nc3ccc(C(=O)NC4CCN(C)CC4)cc3OC)nc2N1C1CCCC1 [BI-2536] + C[C@]1(O)C[C@@H](c2nc(-c3ccc4ccc(-c5ccccc5)nc4c3)c3c(N)nccn32)C1 [Linsitinib] (partner 1 µM)", "method_in_brief": "as §1"}}, "data": [{"cell line": "UMC-11", "values": [{"measurement": "relative viability", "setting": "[1]; first compound 0.01 µM", "value": 0.967}, {"measurement": "relative viability", "setting": "[1]; first compound 0.03162 µM", "value": 0.994}, {"measurement": "relative viability", "setting": "[1]; first compound 0.1 µM", "value": 1.02}, {"measurement": "relative viability", "setting": "[1]; first compound 0.3162 µM", "value": 0.835}, {"measurement": "relative viability", "setting": "[1]; first compound 1 µM", "value": 0.978}, {"measurement": "relative viability", "setting": "BI-2536 + Palbociclib; first compound 0.01 µM", "value": 0.295}, {"measurement": "relative viability", "setting": "BI-2536 + Palbociclib; first compound 0.03162 µM", "value": 0.295}, {"measurement": "relative viability", "setting": "BI-2536 + Palbociclib; first compound 0.1 µM", "value": 0.228}, {"measurement": "relative viability", "setting": "BI-2536 + Palbociclib; first compound 0.3162 µM", "value": 0.223}, {"measurement": "relative viability", "setting": "BI-2536 + Palbociclib; first compound 1 µM", "value": 0.23}, {"measurement": "relative viability", "setting": "BI-2536 + Navitoclax; first compound 0.01 µM", "value": 0.279}, {"measurement": "relative viability", "setting": "BI-2536 + Navitoclax; first compound 0.03162 µM", "value": 0.286}, {"measurement": "relative viability", "setting": "BI-2536 + Navitoclax; first compound 0.1 µM", "value": 0.166}, {"measurement": "relative viability", "setting": "BI-2536 + Navitoclax; first compound 0.3162 µM", "value": 0.136}, {"measurement": "relative viability", "setting": "BI-2536 + Navitoclax; first compound 1 µM", "value": 0.112}, {"measurement": "relative viability", "setting": "BI-2536 + Linsitinib; first compound 0.01 µM", "value": 1.02}, {"measurement": "relative viability", "setting": "BI-2536 + Linsitinib; first compound 0.03162 µM", "value": 0.967}, {"measurement": "relative viability", "setting": "BI-2536 + Linsitinib; first compound 0.1 µM", "value": 0.841}, {"measurement": "relative viability", "setting": "BI-2536 + Linsitinib; first compound 0.3162 µM", "value": 0.207}, {"measurement": "relative viability", "setting": "BI-2536 + Linsitinib; first compound 1 µM", "value": 0.172}]}]}
